Target: T1, GST-Mst1 (Homo sapiens, UniProt Q13043)
T1 sequence (Q13043 1-487): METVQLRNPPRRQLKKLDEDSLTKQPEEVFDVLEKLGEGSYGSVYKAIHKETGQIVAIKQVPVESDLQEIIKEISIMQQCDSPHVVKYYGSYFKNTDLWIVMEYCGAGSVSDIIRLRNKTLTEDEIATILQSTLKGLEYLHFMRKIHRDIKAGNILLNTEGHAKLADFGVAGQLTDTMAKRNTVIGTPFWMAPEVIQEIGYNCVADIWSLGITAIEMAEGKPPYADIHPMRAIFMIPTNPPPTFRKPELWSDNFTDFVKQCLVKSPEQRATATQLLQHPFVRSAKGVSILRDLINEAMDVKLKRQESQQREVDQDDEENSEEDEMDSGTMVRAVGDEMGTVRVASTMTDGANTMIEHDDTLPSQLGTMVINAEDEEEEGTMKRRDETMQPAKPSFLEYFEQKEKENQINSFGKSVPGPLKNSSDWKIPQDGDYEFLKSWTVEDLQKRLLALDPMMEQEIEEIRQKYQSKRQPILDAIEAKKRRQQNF
Assay: GST-Mst1 in vitro kinase assay (ATP consumption assay)
Settings: result in words

CN[C@@H]1C[C@H]2O[C@@](C)([C@@H]1OC)n1c3ccccc3c3c4c(c5c6ccccc6n2c5c31)C(=O)NC4 [staurosporine]
inhibition of MST1 kinase activity (ATP consumption): completely inhibit | inhibition of MST1 kinase activity (ATP consumption) (listed as Staurosporine): inhibit completely

From US20090149375A1, “USE OF THE MST PROTEIN FOR THE TREATMENT OF A THROMBOEMBOLIC DISORDER” (SANOFI-AVENTIS, priority 2005, published 2009)
